Source: patent US20140142053A1, “Use of a Composition Comprising Acylated Steryl Glucoside in the Manufacture of a Product” (UNIVERSITI PUTRA MALAYSIA, priority 2011, published 2014)

Tests used:
[1] = tested on: low-density lipoprotein (LDL); experiment: percentage change in low-density lipoprotein in diabetic rats (FIG. 5); format: in vivo, rat; settings: compared to white rice-fed and tween-treated rats
[2] = tested on: high-density lipoprotein (HDL); experiment: percentage change in high-density lipoprotein in diabetic rats (FIG. 7); format: in vivo, rat; settings: A200: ASG in 200 mg/kg body weight, compared to white-rice fed and metformin-treated rats

Molecule	LDL level (percentage change in low-density lipoprotein) ([1]; fed/treated groups)	LDL level (percentage change in low-density lipoprotein) ([1]; A100: ASG in 100 mg/kg body weight)	LDL level (percentage change in low-density lipoprotein) ([1]; A200: ASG in 200 mg/kg body weight)	HDL level (percentage change in high-density lipoprotein) [2]
CN(C)C(=N)N=C(N)N [metformin, reference compound]	reduced	–	–	–
acylated steryl glucoside [ASG]	–	reduced	reduced	increased
